Experimental data reported in the supplement of paper PMC5662764.
± gives the standard deviation of the averaged measurements.

Key:
Test in all cases: normalised growth rate inhibition (GR value) relative to DMSO control (GR (1 = untreated growth, 0 = cytostasis, <0 = cytotoxic)); higher = less growth inhibition
Conditions in all cases: 72 h
MDAMB231 = system: MDAMB231
Protocol: (§1)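 Breast cancer cell lines (BT-20, Hs 578T, MCF 10A, MCF7, MDA-MB-231, SK-BR-3) were plated in 384-well plates and treated 24 h later with drugs at six concentrations (0.04-10 µM). Viable cells were counted by Hoechst/dead-cell-stain imaging at 0 and 72 h. Counts were normalised to DMSO controls on the same plate to give the relative cell count and the growth-rate inhibition (GR) value; technical plate triplicates were averaged for each biological replicate.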

BT20 = system: BT20
Protocol: as §1

MCF7 = system: MCF7
Protocol: as §1

HS578T = system: HS578T
Protocol: as §1

MCF10A = system: MCF10A
Protocol: as §1

SKBR3 = system: SKBR3
Protocol: as §1

| SMILES | normalised growth rate inhibition (MDAMB231; 0.04 µM) | normalised growth rate inhibition (MDAMB231; 0.12 µM) | normalised growth rate inhibition (MDAMB231; 0.37 µM) | normalised growth rate inhibition (MDAMB231; 1.11 µM) | normalised growth rate inhibition (MDAMB231; 3.33 µM) | normalised growth rate inhibition (MDAMB231; 10 µM) | normalised growth rate inhibition (BT20; 0.04 µM) | normalised growth rate inhibition (BT20; 0.12 µM) | normalised growth rate inhibition (BT20; 0.37 µM) | normalised growth rate inhibition (BT20; 1.11 µM) | normalised growth rate inhibition (BT20; 3.33 µM) | normalised growth rate inhibition (BT20; 10 µM) | normalised growth rate inhibition (MCF7; 0.04 µM) | normalised growth rate inhibition (MCF7; 0.12 µM) | normalised growth rate inhibition (MCF7; 0.37 µM) | normalised growth rate inhibition (MCF7; 1.11 µM) | normalised growth rate inhibition (MCF7; 3.33 µM) | normalised growth rate inhibition (MCF7; 10 µM) | normalised growth rate inhibition (HS578T; 0.04 µM) | normalised growth rate inhibition (HS578T; 0.12 µM) | normalised growth rate inhibition (HS578T; 0.37 µM) | normalised growth rate inhibition (HS578T; 1.11 µM) | normalised growth rate inhibition (HS578T; 3.33 µM) | normalised growth rate inhibition (HS578T; 10 µM) | normalised growth rate inhibition (MCF10A; 0.04 µM) | normalised growth rate inhibition (MCF10A; 0.12 µM) | normalised growth rate inhibition (MCF10A; 0.37 µM) | normalised growth rate inhibition (MCF10A; 1.11 µM) | normalised growth rate inhibition (MCF10A; 3.33 µM) | normalised growth rate inhibition (MCF10A; 10 µM) | normalised growth rate inhibition (SKBR3; 0.04 µM) | normalised growth rate inhibition (SKBR3; 0.12 µM) | normalised growth rate inhibition (SKBR3; 0.37 µM) | normalised growth rate inhibition (SKBR3; 1.11 µM) | normalised growth rate inhibition (SKBR3; 3.33 µM) | normalised growth rate inhibition (SKBR3; 10 µM) |
| --- | --- | --- | --- | --- | --- | --- | --- | --- | --- | --- | --- | --- | --- | --- | --- | --- | --- | --- | --- | --- | --- | --- | --- | --- | --- | --- | --- | --- | --- | --- | --- | --- | --- | --- | --- | --- |
| COC(=O)c1ccc2c(C(=Nc3ccc(N(C)C(=O)CN4CCN(C)CC4)cc3)c3ccccc3)c(O)[nH]c2c1 [nintedanib] | 1.08 ± 0.029 | 1.04 ± 0.022 | 0.9908 ± 0.0092 | 0.929 ± 0.067 | 0.842 ± 0.14 | 0.214 ± 0.56 | 1.03 ± 0.056 | 1.01 ± 0.088 | 0.857 ± 0.14 | 0.843 ± 0.089 | 0.692 ± 0.079 | 0.508 ± 0.12 | 0.999 ± 0.043 | 0.892 ± 0.073 | 0.748 ± 0.12 | 0.545 ± 0.15 | 0.326 ± 0.2 | 0.038 ± 0.22 | 0.922 ± 0.029 | 0.872 ± 0.043 | 0.727 ± 0.053 | 0.585 ± 0.14 | 0.386 ± 0.12 | 0.0955 ± 0.12 | 1.012 ± 0.0058 | 0.9933 ± 0.0087 | 0.9918 ± 0.0074 | 0.99 ± 0.014 | 0.918 ± 0.069 | 0.967 ± 0.029 | 1.09 ± 0.024 | 1.02 ± 0.051 | 0.947 ± 0.028 | 0.835 ± 0.022 | 0.645 ± 0.095 | 0.0487 ± 0.37 |
| CC(=O)Nc1cccc(-n2c(=O)n(C3CC3)c(=O)c3c(Nc4ccc(I)cc4F)n(C)c(=O)c(C)c32)c1 [trametinib] | 0.0906 ± 0.041 | 0.129 ± 0.1 | 0.117 ± 0.072 | 0.11 ± 0.072 | 0.11 ± 0.082 | 0.128 ± 0.11 | 0.71 ± 0.046 | 0.78 ± 0.049 | 0.743 ± 0.047 | 0.717 ± 0.053 | 0.683 ± 0.019 | 0.762 ± 0.066 | 0.364 ± 0.029 | 0.365 ± 0.027 | 0.36 ± 0.011 | 0.387 ± 0.03 | 0.427 ± 0.0076 | 0.425 ± 0.013 | 0.261 ± 0.05 | 0.203 ± 0.071 | 0.194 ± 0.091 | 0.186 ± 0.088 | 0.179 ± 0.075 | 0.198 ± 0.091 | 0.152 ± 0.076 | 0.178 ± 0.068 | 0.182 ± 0.083 | 0.202 ± 0.071 | 0.206 ± 0.058 | 0.231 ± 0.058 | 0.503 ± 0.17 | 0.607 ± 0.08 | 0.565 ± 0.14 | 0.613 ± 0.11 | 0.624 ± 0.12 | 0.631 ± 0.16 |
| N#CCNC(=O)c1ccc(-c2ccnc(Nc3ccc(N4CCOCC4)cc3)n2)cc1 [CYT387] | 0.859 ± 0.059 | 0.777 ± 0.053 | 0.678 ± 0.087 | 0.527 ± 0.18 | 0.36 ± 0.28 | -0.112 ± 0.2 | 0.926 ± 0.072 | 0.871 ± 0.038 | 0.837 ± 0.083 | 0.748 ± 0.046 | 0.576 ± 0.073 | 0.0633 ± 0.1 | 0.912 ± 0.024 | 0.896 ± 0.098 | 0.83 ± 0.092 | 0.628 ± 0.083 | 0.332 ± 0.2 | 0.0654 ± 0.039 | 0.931 ± 0.031 | 0.851 ± 0.022 | 0.762 ± 0.024 | 0.638 ± 0.043 | 0.447 ± 0.12 | 0.046 ± 0.14 | 0.959 ± 0.023 | 0.924 ± 0.032 | 0.868 ± 0.038 | 0.799 ± 0.047 | 0.649 ± 0.1 | 0.185 ± 0.11 | 0.841 ± 0.15 | 0.8 ± 0.16 | 0.789 ± 0.12 | 0.687 ± 0.12 | 0.509 ± 0.11 | 0.0674 ± 0.037 |
| Cc1ccc(NC(=O)c2ccc(CN3CCN(C)CC3)cc2)cc1Nc1nccc(-c2cccnc2)n1 [imatinib] | 1.01 ± 0.055 | 0.999 ± 0.032 | 1.02 ± 0.04 | 1 ± 0.045 | 1.02 ± 0.028 | 0.915 ± 0.022 | 1 ± 0.033 | 1.02 ± 0.075 | 0.99 ± 0.03 | 1.02 ± 0.037 | 0.991 ± 0.042 | 0.981 ± 0.057 | 1.06 ± 0.084 | 1.08 ± 0.088 | 1.08 ± 0.076 | 1.06 ± 0.057 | 1.04 ± 0.075 | 0.9 ± 0.039 | 0.997 ± 0.018 | 0.996 ± 0.011 | 1.01 ± 0.034 | 1.03 ± 0.041 | 1.05 ± 0.059 | 1.05 ± 0.11 | 1.002 ± 0.0079 | 1.001 ± 0.0023 | 0.9962 ± 0.003 | 1 ± 0.014 | 1.01 ± 0.018 | 0.998 ± 0.031 | 1.05 ± 0.04 | 1.07 ± 0.045 | 1.04 ± 0.061 | 1.08 ± 0.046 | 1.11 ± 0.066 | 0.991 ± 0.043 |
| Nc1cc(C(F)(F)F)c(-c2cc(N3CCOCC3)nc(N3CCOCC3)n2)cn1 [buparlisib] | 1.05 ± 0.063 | 0.978 ± 0.027 | 0.844 ± 0.04 | 0.487 ± 0.062 | 0.0994 ± 0.052 | -0.255 ± 0.12 | 1.01 ± 0.029 | 0.868 ± 0.1 | 0.501 ± 0.11 | 0.0131 ± 0.038 | -0.261 ± 0.11 | -0.346 ± 0.12 | 0.759 ± 0.25 | 0.475 ± 0.18 | 0.148 ± 0.069 | -0.113 ± 0.032 | -0.188 ± 0.0036 | -0.189 ± 0.021 | 0.955 ± 0.025 | 0.845 ± 0.028 | 0.679 ± 0.039 | 0.142 ± 0.16 | -0.17 ± 0.099 | -0.231 ± 0.091 | 1 ± 0.012 | 0.956 ± 0.044 | 0.857 ± 0.11 | 0.487 ± 0.23 | 0.0221 ± 0.089 | -0.181 ± 0.12 | 0.917 ± 0.09 | 0.651 ± 0.1 | 0.145 ± 0.056 | -0.203 ± 0.16 | -0.281 ± 0.14 | -0.332 ± 0.13 |
| C=CC(=O)N1CCc2ccc(-n3c(=O)ccc4cnc5ccc(-c6cnn(C)c6)cc5c43)cc21 [QL-XII-47] | 0.659 ± 0.12 | 0.541 ± 0.14 | 0.337 ± 0.15 | 0.109 ± 0.14 | -0.0169 ± 0.082 | -0.128 ± 0.12 | 0.669 ± 0.29 | 0.618 ± 0.31 | 0.351 ± 0.28 | 0.0671 ± 0.23 | -0.135 ± 0.077 | -0.259 ± 0.091 | 0.57 ± 0.16 | 0.35 ± 0.25 | 0.0387 ± 0.084 | -0.0941 ± 0.045 | -0.109 ± 0.017 | -0.188 ± 0.12 | 0.895 ± 0.091 | 0.854 ± 0.11 | 0.713 ± 0.15 | 0.438 ± 0.24 | 0.153 ± 0.14 | -0.127 ± 0.12 | 0.969 ± 0.021 | 0.953 ± 0.024 | 0.867 ± 0.11 | 0.683 ± 0.26 | 0.428 ± 0.32 | -0.127 ± 0.14 | 0.516 ± 0.042 | 0.35 ± 0.12 | 0.0964 ± 0.17 | -0.108 ± 0.14 | -0.26 ± 0.18 | -0.3 ± 0.16 |
| CC1=C(CO)C(=O)O[C@@H]([C@@H](C)[C@H]2CC[C@H]3[C@@H]4C[C@H]5O[C@]56[C@@H](O)C=CC(=O)[C@]6(C)[C@H]4CC[C@]23C)C1 [withaferin-a] | 1.04 ± 0.053 | 1 ± 0.05 | 0.614 ± 0.16 | -0.0338 ± 0.067 | -0.143 ± 0.056 | -0.336 ± 0.097 | 1.04 ± 0.038 | 0.99 ± 0.083 | 0.714 ± 0.13 | -0.105 ± 0.13 | -0.345 ± 0.065 | -0.283 ± 0.026 | 1.01 ± 0.055 | 0.907 ± 0.091 | 0.283 ± 0.09 | 0.0882 ± 0.037 | -0.196 ± 0.13 | -0.141 ± 0.099 | 1.01 ± 0.018 | 1.01 ± 0.02 | 0.944 ± 0.077 | -0.0869 ± 0.077 | -0.085 ± 0.037 | -0.287 ± 0.077 | 0.9993 ± 0.0071 | 0.984 ± 0.025 | 0.861 ± 0.05 | -0.0779 ± 0.054 | -0.193 ± 0.15 | -0.244 ± 0.19 | 1.04 ± 0.063 | 0.892 ± 0.096 | 0.174 ± 0.15 | -0.104 ± 0.11 | -0.3 ± 0.086 | -0.278 ± 0.12 |
| Cc1cnc(-c2cnc(NCCNc3ccc(C#N)cn3)nc2-c2ccc(Cl)cc2Cl)[nH]1 | 0.895 ± 0.041 | 0.823 ± 0.039 | 0.831 ± 0.021 | 0.827 ± 0.061 | 0.831 ± 0.024 | 0.762 ± 0.035 | 0.915 ± 0.11 | 0.932 ± 0.082 | 0.959 ± 0.087 | 1 ± 0.093 | 1.01 ± 0.069 | 0.875 ± 0.16 | 0.844 ± 0.082 | 0.786 ± 0.085 | 0.776 ± 0.095 | 0.586 ± 0.16 | 0.585 ± 0.1 | 0.222 ± 0.061 | 0.97 ± 0.014 | 0.9636 ± 0.0048 | 0.962 ± 0.018 | 0.911 ± 0.059 | 0.907 ± 0.018 | 0.525 ± 0.14 | 1.01 ± 0.032 | 1.01 ± 0.041 | 0.997 ± 0.07 | 0.952 ± 0.12 | 0.9 ± 0.12 | 0.799 ± 0.13 | 0.731 ± 0.12 | 0.725 ± 0.17 | 0.786 ± 0.16 | 0.749 ± 0.17 | 0.753 ± 0.17 | 0.465 ± 0.2 |
